What all share (type): cell-based, mouse
For experiment [1], the system named is adult tail-tip fibroblasts (ATTFs). Briefly: Immunocytochemistry for cTnT and α-actinin in adult tail-tip fibroblasts. To be noted: GHMT2m-infected ATTFs; DMSO or A83-01 for 2 weeks. As for the experimental part: (§1) Hearts or skinned tails from adult C57BL6 mice were cut into small pieces with ˜1 mm diameter. The biopsies were seeded on a 10 cm culture dish and incubated with 10 mL of growth medium (DMEM/Hi glucose (Hyclone), 10% FBS (Gemini:), 1.1% Penicillin-Streptomycin (Gibco) and 1.1% GlutaMAX supplement (Gibco)) at 37° C. with 5% CO2. TTFs migrated out of the biopsies after 3 days. The media were changed every other day. Once the TTFs have reached a 70-80% confluence, the cells were harvested and stored for future use.
(§2) Fibroblasts were plated on tissue culture dishes pre-coated with SureCoat (Cellutron) at a density of ˜40 cells/mm^2 before transduction. The fibroblast growth medium was replaced with freshly made viral mixture containing polybrene (Sigma). Twenty-four hours later, fibroblasts were infected again with viral mixture containing polybrene. Twenty fours later, the viral medium was replaced with induction medium, composed of DMEM/199 (4:1) (Gibco), 10% FBS (Gemini), 5% horse serum(Gemini), antibiotics (Gibco), 1× non-essential amino acids (Gibco), 1× essential amino acids (Gibco), 1× B-27 (Gibco), 1× insulin-selenium-transferin (Gibco), 1× vitamin mixture (Gibco), and 1× sodium pyruvate (Gibco). Medium was changed every two-three days until cells were examined.
Cells were fixed in 2% PFA for 15 min on ice then washed with DPBS (Gibco) three times at RT. […]

The subject of experiment [2] is MEFs. The experiment in a line: Intracellular staining for flow cytometry (cTnT, Myc) in retrovirus-infected MEFs. To be noted: for cTnThigh fraction: day 7. As for the experimental part: C57BL6 pregnant mice at E13 were order from Charles River's laboratory. Embryos at E14.5 were harvested and their internal organs and head were removed. The body below the liver was minced using blade to fine pieces. Minced embryos were incubated with 2 ml of 0.25% trypsinIl mM EDTA, Phenol Red (Gibco) for 40 mins at 37° C. with 5% CO2. Cells were suspended in 25 ml of growth medium (DMEM/Hi glucose (Hyclone) 10% FBS (Gemini), 1.1% Penicillin-Streptomycin (Gibco) and 1.1% GlutaMAX supplement (Gibco)) and then plated on a 15 cm dish. In 24 hours, the media was aspirated and new 25 ml of growth medium was added. In 72 hours, MEFs were harvested and stored for future use.
as §2
Adherent fibroblasts were washed with DPBS (Gibco). Cells were detached from culture dish by treatment with 0.25% Trypsin/EDTA (Gibco) for 3 min at 37° C. Cells were then washed with 4 ml of 5% FBS (Gemini) in DPBS filtered through a cell strainer and centrifuge at 1200 rpm×6 mins. Cells were washed with 500 ul of 1% BSA in DPBS. Cells were fixed with BD Cytofix/Cytoperm™ solution in 0.2 ml/1 million cells in 1.5 ml eppendorf tube for 20 min on ice. Cells were washed with 1 ml of BD perm/wash buffer and Centrifuged for 6 min at 1200 rpm. The supernatant was discarded; cells were washed again with 1 ml of BD Perm/wash buffer and left overnight at 4° C. The next day, Cells were centrifuged for 6 min at 1200 rpm, the supernatant discarded and 100 μl of Blocking buffer made with 5% goat, donkey serum (Sigma: G9023 and D9663) in Perm/wash buffer was added to the cells and incubated for 30 min at RT. A primary antibody: Mouse Troponin T (cTnT) antibody (Thermo Scientific, ms-295-p, 1:200), mouse anti-C-Myc antibody (BD Pharmingen, 551102, 1:200) in 100 μl BD Perm/Wash buffer was added to the cells and incubated for 1 hr at RT. One ml cold BD Perm/wash buffer was added to the cells and centrifuged for 6 min at 1200 rpm. […] Cells were re-suspended in 300 ul of 1% BSA/DPBS and then analyzed using FACS Caliber (BD Sciences) and FlowJo software.
For orientation: A flow cytometer gives signals particle by particle.

In experiment [3] the test system is MEFs. The experiment in a line: Immunocytochemistry for cTnT and α-actinin in infected MEFs. To be noted: day 14, without or with A83-01. How it is done:
as §2
Cells were fixed in 2% PFA for 15 min on ice then washed with DPBS (Gibco) three times at RT. The cells were permeabilized in 0.5% Triton X-100 (made in PBS) for 20 min at RT. After washing the cells with DPBS (Gibco), cells were incubated with the primary antibody against α-actinin (Sigma A7811, 1:300), Connexin 43 (Sigma, C6219, 1:500), Troponin T (Thermo Scientific MS-245-P, 1:500), α-SMA (Santa Cruz Biotechnology, SC-32251, 1:800), Myl2 (Proteintech, 10906-1-AP, 1:200), or Myl7 (Proteintech, 17283-1-AP, 1:200) in 10% FBS(Gemini) in DPBS for 1 hour at RT. Cells were wash with DPBS three times, 5 min each. Cell were incubated with the secondary antibody (Alexa Fluor 555 Molecular Probes A21422, 1:1000) and Hoechest (Molecular Probes 33342, 1:5000) for 30 mins at RT.

Experiment [4] concerns adult cardiac fibroblasts (ACFs). Briefly: qPCR of cardiac genes in adult cardiac fibroblasts. To be noted: infected ACFs treated with A83-01 for 4 weeks. As for the experimental part: as §1
Cells were harvested in TRizol reagent (Ambion) for RNA isolation. RNA was extracted with the RNeasy® Plus Universal Mini Kit (Qiagen). RT-PCR was performed using the Superscript III first-strand synthesis system (Invitrogen). qPCR was performed using the SYBR® Green PCR master mix (Applied Biosystems) or StepOne™ Real-Time PCR Systems (Applied Biosystems). Primers are listed in Supplementary Table 1. Ryr2 (Mm00465877_m1) and Myh7 (Mm01319006_91) are Taqman probes (Life technologies).
(In qPCR the cycle at which signal appears reflects the starting amount.)

Data on 1 molecule can be found in patent US10519423B1, “High efficiency reprogramming of fibroblasts into cardiomyocytes” (The Regents of the University of Colorado, a body corporate, priority 2015, dated 2019).

Turning to `Cc1cccc(-c2nn(C(=S)Nc3ccccc3)cc2-c2ccnc3ccccc23)n1` [A83-01], in experiment [1], the “adult TTFs positive for cTnT and α-actinin” value is “approximately 30%”. The cTnThigh fraction result was “approximately 45.6%” in the experiment with MEFs [2] (GHMT2m-infected MEFs, alone or treated with A83-01 (0.5 μM, day 3 to day 7)) and “approximately 30.7%” in the experiment with MEFs [2] (GHMT-infected MEFs, alone or treated with TGF-β1 (10 ng/ml) or A83-01 (0.5 μM, day 3 to day 7)). Moreover, in the experiment on MEFs [2] (MEFs without reprogramming factors, flow cytometry), the “induction of cTnT+ cells by the small molecule alone” value is given as “did not induce cTnT+ cells”. Further, the figures for the “proportion of cTnT+ cells (immunostaining)” value in the experiment on MEFs [3] (GHMT2m-cultures of MEFs) and in the experiment on MEFs [3] (GHMT-cultures of MEFs) were roughly 67% and “approximately 58%”, respectively. Further, the figures for the “proportion of α-actinin+ cells (immunostaining)” value in the experiment on MEFs [3] (GHMT2m-cultures of MEFs) and in the experiment with MEFs [3] (GHMT-cultures of MEFs) were roughly 64% and “approximately 57%”, respectively. The “expression of other cardiac genes, Actc1, Myh6 and Ryr2” value in experiment [4] is recorded as “enhanced”.
